Tests used:
Adenosine receptor A2b = biological target: T1, Adenosine receptor A2b (Homo sapiens, UniProt P29275); assay: Inhibition of NECA-induced stimulation of adenylate cyclase at human adenosine A2B receptor; assay type: functional
T1 sequence (P29275 whole entry): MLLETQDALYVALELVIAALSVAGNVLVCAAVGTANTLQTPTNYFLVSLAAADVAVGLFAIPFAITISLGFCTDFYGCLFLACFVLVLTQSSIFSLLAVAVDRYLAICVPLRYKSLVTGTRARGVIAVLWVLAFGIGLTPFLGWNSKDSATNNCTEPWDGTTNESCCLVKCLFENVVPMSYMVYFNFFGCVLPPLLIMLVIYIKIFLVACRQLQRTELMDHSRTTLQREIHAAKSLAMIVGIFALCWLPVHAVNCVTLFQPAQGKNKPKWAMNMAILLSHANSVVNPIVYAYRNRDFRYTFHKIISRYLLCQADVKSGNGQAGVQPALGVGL

Adenosine receptor A3 = biological target: T2, Adenosine receptor A3 (Homo sapiens, UniProt P0DMS8); assay: Binding affinity against human adenosine A3 receptor in CHO cell membranes using [3H]NECA
T2 sequence (P0DMS8 whole entry): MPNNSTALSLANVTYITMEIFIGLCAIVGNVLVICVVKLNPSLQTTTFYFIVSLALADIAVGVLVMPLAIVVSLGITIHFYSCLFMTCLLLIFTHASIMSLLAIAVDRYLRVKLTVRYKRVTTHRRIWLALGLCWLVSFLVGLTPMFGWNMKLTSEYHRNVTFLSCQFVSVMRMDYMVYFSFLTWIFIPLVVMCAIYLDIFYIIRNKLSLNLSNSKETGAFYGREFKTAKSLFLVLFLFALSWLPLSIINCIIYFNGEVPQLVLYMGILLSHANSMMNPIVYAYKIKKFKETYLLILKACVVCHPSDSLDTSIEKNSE

Adenosine receptor A1 [1] = biological target: T3, Adenosine receptor A1 (Rattus norvegicus, UniProt P25099); assay: Binding affinity against adenosine A1 receptor of rat without and after pre-incubation with alkaline phosphatase
T3 sequence (P25099 whole entry): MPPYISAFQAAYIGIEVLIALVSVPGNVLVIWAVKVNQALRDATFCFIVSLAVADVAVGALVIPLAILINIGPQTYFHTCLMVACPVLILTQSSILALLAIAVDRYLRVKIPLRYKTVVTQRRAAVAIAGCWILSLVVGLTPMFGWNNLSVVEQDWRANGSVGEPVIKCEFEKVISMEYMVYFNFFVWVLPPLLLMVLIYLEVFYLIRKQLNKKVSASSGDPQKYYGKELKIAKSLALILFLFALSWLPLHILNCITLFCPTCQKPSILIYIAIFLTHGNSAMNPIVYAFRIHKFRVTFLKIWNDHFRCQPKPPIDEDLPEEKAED

Adenosine receptor A1 [2] = biological target: T3, Adenosine receptor A1; assay: Binding affinity against adenosine A1 receptor of rat brain cortical membranes using [3H]CHA
Adenosine receptor A2a [3] = biological target: Adenosine receptor A2a (Rattus norvegicus, UniProt P30543); assay: Binding affinity against adenosine A2A receptor of rat brain striatal membranes using [3H]CGS-21680
Adenosine receptor A2a [4] = biological target: T4, Adenosine receptor A2a (Homo sapiens, UniProt P29274)
Description: Binding affinity against human adenosine A2A receptor using [3H]CGS-21680 (95% confidence)

Adenosine receptor A2a [5] = biological target: T4, Adenosine receptor A2a; remark: listed apart in the source
Description: Binding affinity against human post-mortem brain adenosine A2A receptor using nuclei caudati and [3H]-CGS-21,680

Adenosine receptor A1 [6] = biological target: T5, Adenosine receptor A1 (Homo sapiens, UniProt P30542); assay: Binding affinity against human adenosine A1 receptor using [3H]-CCPA (95% confidence)
T5 sequence (P30542 whole entry): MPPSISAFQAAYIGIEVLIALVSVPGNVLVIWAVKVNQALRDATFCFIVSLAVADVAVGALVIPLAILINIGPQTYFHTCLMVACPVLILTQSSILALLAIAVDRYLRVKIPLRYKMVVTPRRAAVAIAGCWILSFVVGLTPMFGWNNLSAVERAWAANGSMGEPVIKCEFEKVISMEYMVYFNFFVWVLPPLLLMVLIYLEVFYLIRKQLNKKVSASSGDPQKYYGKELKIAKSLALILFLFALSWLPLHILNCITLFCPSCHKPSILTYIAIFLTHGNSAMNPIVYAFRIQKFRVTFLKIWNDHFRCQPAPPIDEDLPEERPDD

Sequence of Adenosine receptor A2a (Rattus norvegicus, UniProt P30543) (P30543 whole entry): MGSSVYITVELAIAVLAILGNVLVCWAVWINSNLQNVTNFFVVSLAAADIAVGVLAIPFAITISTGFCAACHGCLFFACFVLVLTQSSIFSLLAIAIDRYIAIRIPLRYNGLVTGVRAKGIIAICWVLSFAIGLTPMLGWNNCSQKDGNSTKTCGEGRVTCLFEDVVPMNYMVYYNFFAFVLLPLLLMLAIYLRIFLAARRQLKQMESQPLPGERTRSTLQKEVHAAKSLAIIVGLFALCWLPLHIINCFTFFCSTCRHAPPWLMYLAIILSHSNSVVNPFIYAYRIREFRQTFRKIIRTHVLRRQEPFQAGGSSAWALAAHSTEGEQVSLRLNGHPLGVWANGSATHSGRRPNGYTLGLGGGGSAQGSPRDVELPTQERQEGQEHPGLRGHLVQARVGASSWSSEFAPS
T4 sequence (P29274 whole entry): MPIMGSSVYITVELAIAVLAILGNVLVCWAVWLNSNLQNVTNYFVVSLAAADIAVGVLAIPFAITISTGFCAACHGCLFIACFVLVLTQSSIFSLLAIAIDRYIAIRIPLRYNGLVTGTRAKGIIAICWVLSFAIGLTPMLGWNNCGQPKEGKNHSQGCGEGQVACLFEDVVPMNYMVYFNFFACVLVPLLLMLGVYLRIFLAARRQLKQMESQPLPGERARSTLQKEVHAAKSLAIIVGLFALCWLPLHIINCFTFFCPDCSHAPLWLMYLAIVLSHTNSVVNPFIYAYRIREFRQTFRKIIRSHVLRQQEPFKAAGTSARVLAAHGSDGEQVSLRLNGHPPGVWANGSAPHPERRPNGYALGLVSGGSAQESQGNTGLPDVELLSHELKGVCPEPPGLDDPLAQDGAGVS

Row | Compound | Ki (Adenosine receptor A1 [2]) [nM] | Ki (Adenosine receptor A2a [3]) [nM] | also measured
1 | C#CCn1c(=O)c2c(nc(/C=C/c3cccc(Br)c3)n2C)n(C)c1=O | – | – | Ki (Adenosine receptor A2b): > 10000 nM; Ki (Adenosine receptor A3): > 10000 nM
2 | C#CCn1c(=O)c2c(nc(/C=C/c3cccc(OC)c3)n2C)n(CCCOP(=O)(O)O)c1=O | – | – | Ki (Adenosine receptor A1 [1]): 1120 nM
3 | C#CCn1c(=O)c2c(nc(/C=C/c3cccc(O)c3)n2C)n(C)c1=O | 940 | 21 | –
4 | C#CCn1c(=O)c2c(nc(/C=C/c3cccc(N)c3)n2C)n(C)c1=O | 1070 | 42 | –
5 | C#CCn1c(=O)c2c(nc(/C=C/c3cccc(OC)c3)n2C)n(C)c1=O | 1280 | 12 | –
6 | C#CCn1c(=O)c2c(nc(/C=C/c3cccc(OC)c3)n2C)n(CCCO)c1=O | 900 | 8 | Ki (Adenosine receptor A2a [4]): 5 nM; Ki (Adenosine receptor A2a [5]): 15 nM; Ki (Adenosine receptor A1 [6]): 2500 nM; Ki (Adenosine receptor A2b): > 10000 nM; Ki (Adenosine receptor A3): > 10000 nM

The next lines start with results.

Row | Ki (Adenosine receptor A1 [2]) [nM] | Ki (Adenosine receptor A2a [3]) [nM] | Compound | also measured
7 | 625 | 13 | C#CCn1c(=O)c2c(nc(/C=C/c3cccc(Br)c3)n2C)n(CCCO)c1=O | –
8 | 1280 | 25 | C#CCn1c(=O)c2c(nc(/C=C/c3cccc(Br)c3)n2C)n(CCO)c1=O | –
9 | 1040 | 39 | C#CCn1c(=O)c2c(nc(/C=C/c3cccc(OC)c3)n2C)n(CCO)c1=O | –
